The values that follow come from US20220079924A1, “GLUCOCORTICOID RECEPTOR MODULATORS” (ORIC Pharmaceuticals, Inc., priority 2018, published 2022).

Bounds are passed on as bounds.

The target in the assay is T1, GR (Homo sapiens, UniProt P04150).
T1 construct: expressed in transfected cells; host or cells: CHO-K1 (CHO-K1-GR-MMTV-Luc reporter cells)
T1 sequence (P04150 1-777): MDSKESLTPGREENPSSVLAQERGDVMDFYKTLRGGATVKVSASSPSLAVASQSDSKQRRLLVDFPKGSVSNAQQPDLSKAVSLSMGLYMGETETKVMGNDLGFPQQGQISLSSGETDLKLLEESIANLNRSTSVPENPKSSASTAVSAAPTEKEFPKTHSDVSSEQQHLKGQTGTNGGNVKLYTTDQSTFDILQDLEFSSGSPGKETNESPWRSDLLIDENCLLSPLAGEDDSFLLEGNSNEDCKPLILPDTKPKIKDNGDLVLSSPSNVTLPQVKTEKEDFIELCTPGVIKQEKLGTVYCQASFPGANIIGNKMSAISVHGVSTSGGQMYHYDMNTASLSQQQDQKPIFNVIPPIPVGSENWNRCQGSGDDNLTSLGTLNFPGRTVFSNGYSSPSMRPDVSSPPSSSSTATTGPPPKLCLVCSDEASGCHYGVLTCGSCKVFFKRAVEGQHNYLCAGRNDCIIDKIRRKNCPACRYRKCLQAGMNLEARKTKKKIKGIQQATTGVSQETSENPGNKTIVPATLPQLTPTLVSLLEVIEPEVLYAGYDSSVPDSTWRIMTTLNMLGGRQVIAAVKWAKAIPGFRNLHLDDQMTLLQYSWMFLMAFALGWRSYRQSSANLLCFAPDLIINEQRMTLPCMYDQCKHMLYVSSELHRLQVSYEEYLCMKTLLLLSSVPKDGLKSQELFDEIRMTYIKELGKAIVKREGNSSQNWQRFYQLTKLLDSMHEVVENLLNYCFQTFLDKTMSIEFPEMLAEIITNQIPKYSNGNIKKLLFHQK
The assay can be described thus: In Vitro GR Luciferase Reporter Assay (antagonist assay). Format: cell-based. The following applies: CHO-K1-GR-MMTV-Luc reporter cells, 10 nM Dexamethasone, 18-24 hours. As for the experimental part:
Example A: In Vitro GR Luciferase Reporter Assay
Cell Line: CHO-K1-GR-MMTV-Luc reporter cells
Culture Media: DMEM (with phenol red)+10% FBS
Assay Media: DMEM (without phenol red)+10% CSS
Culture CHO-K1-GR-MMTV-Luc reporter cells in T175 flasks in Culture Media at conditions less than 90% confluence.
Using Bravo (Agilent) liquid handler:
200× DMSO 1:3 serial dilutions of control and test compounds in 96-well non-sterile V bottom plate in DMSO, 12 points for each compound were prepared.
Prepared 5× compound serial dilutions: Add 97.5 μL/well of Assay Media into 96-well non-sterile V bottom plate then added 2.5 ul of 200× concentration of compounds and mix well.
Seeded cells for Antagonist Assay: 5200 CHO-K1-GR-MMTV-Luc reporter cells were seeded in Greiner #781080 flat clear bottom 384-well white TC plate in 20 ul of Assay Media containing 12.5 nM Dexamethasone (final concentration=10 nM).
Added compounds: 5 μl of 5× compounds were added to appropriate wells and followed with a quick spin (1000 rpm, 10 sec) to bring media and cells to the bottom of plate. The plates were covered with SealMate film to avoid evaporation and placed in 37° C. incubator for approximately 18-24 hours.
Read plates: Equilibrate appropriate amount of Promega OneGlo luciferase reagent to room temperature. Remove the plates from incubator and add 25 uL of OneGlo reagent/well by Bravo and read the plates on Tecan Spark plate reader within 15 minutes.
The ability of the compounds disclosed herein to inhibit GR activity was quantified and the respective IC50 value was determined. Table 1 provides the cellular IC50 values of compounds disclosed herein.
(Reporter assays use an easily measured gene product as a stand-in for the process of interest.)

`O=C(c1cc(F)ccn1)[C@]12Cc3cnn(-c4ccc(F)cc4)c3C=C1CC[C@H](N(CC(F)F)S(=O)(=O)c1ccc(F)cc1)C2` [Example 25] gave an IC50 of at most 100 nM. The molecule `Cn1cc(S(=O)(=O)C[C@H]2CCC3=Cc4c(cnn4-c4ccc(F)cc4)C[C@]3(C(=O)c3cc(Cl)ccn3)C2)cn1` [Example 26] registered an IC50 of at most 100 nM. The result for `O=C(c1cc(F)ccn1)[C@]12Cc3cnn(-c4ccc(F)nc4)c3C=C1CC[C@H](N(C1CC1)S(=O)(=O)c1ccc(F)cc1)C2` [Example 27] reads at most 100 nM. For the molecule `O=C(c1cc(Cl)ccn1)[C@]12Cc3cnn(-c4ccc(F)cc4)c3C=C1CC[C@H](N(CC(F)F)S(=O)(=O)c1ccc(F)cc1)C2` [Example 28], the IC50 is at most 100 nM. The value for `Cn1cc(S(=O)(=O)N(CCF)[C@H]2CCC3=Cc4c(cnn4-c4ccc(F)cc4)C[C@]3(C(=O)c3cc(Cl)ccn3)C2)cn1` [Example 29] was at most 100 nM; that for `Cn1cnc(S(=O)(=O)N(CC(F)F)[C@H]2CCC3=Cc4c(cnn4-c4ccc(F)cc4)C[C@]3(C(=O)c3cc(F)ccn3)C2)n1` [Example 30] was at most 100 nM. The value for `Cn1cnc(S(=O)(=O)N(CC(F)F)[C@H]2CCC3=Cc4c(cnn4-c4ccc(F)cc4)C[C@]3(C(=O)c3cc(Cl)ccn3)C2)n1` [Example 31] was at most 100 nM; that for `Cn1cc(S(=O)(=O)N(CCF)[C@H]2CCC3=Cc4c(cnn4-c4ccc(F)cc4)C[C@]3(C(=O)c3cc(C(F)(F)F)ccn3)C2)cn1` [Example 32] was at most 100 nM.

For `Cn1cnc(S(=O)(=O)N([C@H]2CCOC2)[C@H]2CCC3=Cc4c(cnn4-c4ccc(F)cc4)C[C@]3(C(=O)c3cc(C(F)(F)F)ccn3)C2)n1` [Example 33], the IC50 was at most 100 nM. `O=C(c1cc(F)ccn1)[C@]12Cc3cnn(-c4ccc(F)cc4)c3C=C1CC[C@H](N(CC(F)(F)F)S(=O)(=O)c1ccc(F)cc1)C2` [Example 34] displayed an IC50 of at most 100 nM.

For the molecule `C[C@H]([C@H]1CCC2=Cc3c(cnn3-c3ccc(F)cc3)C[C@]2(C(=O)c2ccc(C(F)(F)F)cn2)C1)S(=O)(=O)c1cnn(C)c1` [Example 35], the IC50 was at most 100 nM. The result for `C[C@@H]([C@H]1CCC2=Cc3c(cnn3-c3ccc(F)cc3)C[C@]2(C(=O)c2ccc(C(F)(F)F)cn2)C1)S(=O)(=O)c1cnn(C)c1` [Example 36] reads at most 100 nM; that for `Cn1cc(S(=O)(=O)N(CC(F)F)[C@H]2CCC3=Cc4c(cnn4-c4ccc(F)cc4)C[C@]3(C(=O)c3cc(C(F)(F)F)ccn3)C2)cn1` [Example 37], at most 100 nM. In the case of `CC(C)N([C@H]1CCC2=Cc3c(cnn3-c3ccc(F)nc3)C[C@]2(C(=O)c2ncc(C(F)(F)F)s2)C1)S(=O)(=O)c1ncn(C)n1` [Example 38], the IC50 is at most 100 nM. The value for `Cn1cc(S(=O)(=O)N(C2CC2)[C@H]2CCC3=Cc4c(cnn4-c4ccnc(F)c4)C[C@]3(C(=O)c3cc(C(F)(F)F)ccn3)C2)cn1` [Example 39] was at most 100 nM. `Cn1cnc(S(=O)(=O)N(C2CC2)[C@H]2CCC3=Cc4c(cnn4-c4ccnc(F)c4)C[C@]3(C(=O)c3cc(C(F)(F)F)ccn3)C2)n1` [Example 40] yielded an IC50 of at most 100 nM. Take `Cn1cnc(S(=O)(=O)N(CC(F)(F)F)[C@H]2CCC3=Cc4c(cnn4-c4ccc(F)cc4)C[C@]3(C(=O)c3cc(Cl)ccn3)C2)n1` [Example 41]: the IC50 was at most 100 nM.

The molecule `Cn1cnc(S(=O)(=O)N([C@H]2CCC3=Cc4c(cnn4-c4ccc(F)cc4)C[C@]3(C(=O)c3cc(C(F)(F)F)ccn3)C2)[C@H]2C[C@](O)(C(F)(F)F)C2)n1` [Example 42] gave an IC50 of 100 to 1000 nM.

Molecule `Cn1cnc(S(=O)(=O)N([C@H]2CCC3=Cc4c(cnn4-c4ccc(F)cc4)C[C@]3(C(=O)c3cc(F)ccn3)C2)[C@H]2C[C@](O)(C(F)(F)F)C2)n1` [Example 43] registered an IC50 of 100 to 1000 nM. Take `Cn1cnc(S(=O)(=O)N([C@H]2CCC3=Cc4c(cnn4-c4ccc(F)cc4)C[C@]3(C(=O)c3cc(Cl)ccn3)C2)[C@H]2C[C@](O)(C(F)(F)F)C2)n1` [Example 44]: the IC50 was at most 100 nM. In turn, `Cn1cnc(S(=O)(=O)N([C@H]2CCC3=Cc4c(cnn4-c4ccc(F)cc4)C[C@]3(C(=O)c3cc(Cl)ccn3)C2)[C@H]2C[C@@](O)(C(F)(F)F)C2)n1` [Example 45] registered an IC50 of at most 100 nM. The result for `Cn1cnc(S(=O)(=O)N(C2CC2)[C@H]2CCC3=Cc4c(cnn4-c4ccc(F)cc4)C[C@]3(C(=O)c3ncc(C(C)(C)C)s3)C2)n1` [Example 46] reads at most 100 nM; that for `Cn1ccc(S(=O)(=O)N(C2CC2)[C@H]2CCC3=Cc4c(cnn4-c4ccc(F)cc4)C[C@]3(C(=O)c3cc(C(F)(F)F)ccn3)C2)c1` [Example 47], at most 100 nM. With `Cn1cnc(S(=O)(=O)N(C2CC2)[C@H]2CCC3=Cc4c(cnn4-c4ccc(F)nc4)C[C@]3(C(=O)c3cc(F)ccn3)C2)n1` [Example 48], the IC50 is at most 100 nM. `CCN([C@H]1CCC2=Cc3c(cnn3-c3ccc(F)nc3)C[C@]2(C(=O)c2cc(C(F)(F)F)ccn2)C1)S(=O)(=O)c1ncn(C)n1` [Example 49]: the IC50 was at most 100 nM.

In the case of `CCN([C@H]1CCC2=Cc3c(cnn3-c3ccc(F)nc3)C[C@]2(C(=O)c2cc(Cl)ccn2)C1)S(=O)(=O)c1ncn(C)n1` [Example 50], the IC50 is at most 100 nM. Regarding `CC(C)N([C@H]1CCC2=Cc3c(cnn3-c3ccc(F)nc3)C[C@]2(C(=O)c2cc(C(F)(F)F)ccn2)C1)S(=O)(=O)c1ncn(C)n1` [Example 51], the IC50 is at most 100 nM.

In the case of `CC(C)N([C@H]1CCC2=Cc3c(cnn3-c3ccc(F)nc3)C[C@]2(C(=O)c2cc(Cl)ccn2)C1)S(=O)(=O)c1ncn(C)n1` [Example 52], the IC50 is at most 100 nM. The value for `O=C(c1cc(Cl)ccn1)[C@]12Cc3cnn(-c4ccc(F)cc4)c3C=C1CC[C@H](N(CC(F)(F)F)S(=O)(=O)c1ccc(F)cc1)C2` [Example 53] was at most 100 nM; that for `Cn1cc(S(=O)(=O)N(Cc2ncco2)[C@H]2CCC3=Cc4c(cnn4-c4ccc(F)cc4)C[C@]3(C(=O)c3cc(C(F)(F)F)ccn3)C2)cn1` [Example 54] was at most 100 nM. Turning to `Cn1cnc(S(=O)(=O)N(C2CC2)[C@H]2CCC3=Cc4c(cnn4-c4ccc(F)cn4)C[C@]3(C(=O)c3cc(C(F)(F)F)ccn3)C2)n1` [Example 55], the half-maximal inhibitory concentration (IC50) is at most 100 nM. The result for `C[C@H]([C@H]1CCC2=Cc3c(cnn3-c3ccc(F)cc3)C[C@]2(C(=O)c2ncc(C(F)(F)F)s2)C1)S(=O)(=O)c1ncn(C)n1` [Example 56] reads at most 100 nM; that for `C[C@@H]([C@H]1CCC2=Cc3c(cnn3-c3ccc(F)cc3)C[C@]2(C(=O)c2ncc(C(F)(F)F)s2)C1)S(=O)(=O)c1ncn(C)n1` [Example 57], at most 100 nM. The value for `Cn1ccc(S(=O)(=O)N(C2CC2)[C@H]2CCC3=Cc4c(cnn4-c4ccc(F)cc4)C[C@]3(C(=O)c3cc(F)ccn3)C2)c1` [Example 58] was at most 100 nM. The value for `C[C@H]([C@H]1CCC2=Cc3c(cnn3-c3ccc(F)cc3)C[C@]2(C(=O)c2ncc(C(C)(C)C)s2)C1)S(=O)(=O)c1cnn(C)c1` [Example 59] was at most 100 nM.

Take `Cn1cc(S(=O)(=O)N(CCOC(F)(F)F)[C@H]2CCC3=Cc4c(cnn4-c4ccc(F)cc4)C[C@]3(C(=O)c3cc(C(F)(F)F)ccn3)C2)cn1` [Example 60]: the IC50 is at most 100 nM. `Cn1cc(S(=O)(=O)N(C2CC2)[C@H]2CCC3=Cc4c(cnn4-c4ccc(F)nc4)C[C@]3(C(=O)c3ncc(C(C)(C)C)s3)C2)cn1` [Example 61]: the IC50 is at most 100 nM. For `C[C@H]([C@H]1CCC2=Cc3c(cnn3-c3ccc(F)cc3)C[C@]2(C(=O)c2cc(F)ccn2)C1)S(=O)(=O)c1cnn(C)c1` [Example 62], the IC50 was at most 100 nM. The value for `CC(C)N([C@H]1CCC2=Cc3c(cnn3-c3ccc(F)cc3)C[C@]2(C(=O)c2ncc(C(C)(C)C)s2)C1)S(=O)(=O)c1cnn(C)c1` [Example 63] was at most 100 nM.

With `CC(C)N([C@H]1CCC2=Cc3c(cnn3-c3ccc(F)cc3)C[C@]2(C(=O)c2cc(C(C)(C)C)ccn2)C1)S(=O)(=O)c1cnn(C)c1` [Example 64], the IC50 was at most 100 nM.

In general, IC50 refers to the concentration that gives 50% inhibition. Read a low IC50 as inhibition by little substance.
